Activity calls are given as the source filed them. The calls are words filed in the database; no cut-off is given here.
Columns and labels:
[1] = system: HeLa; assay: Transfection efficiency of compound in delivering a plasmid bearing the sequence of luciferase gene under the dependence of human cytomegalo virus promoter into HeLa cells was evaluated; Active; type: functional, cell-based
[2] = system: HeLa; assay: Transfection efficiency of compound in delivering a plasmid bearing the sequence of luciferase gene as ratio of nM of vector/ug of DNA in HeLa cells; type: functional, Homo sapiens
[3] = system: NIH3T3; assay: Transfection efficiency of compound in delivering a plasmid bearing the sequence of luciferase gene as ratio of nM of vector/ug of DNA in NIH3T3 cells; type: functional, Mus musculus
[4] = system: HeLa; assay: Transfection efficiency of compound in delivering a plasmid bearing the sequence of luciferase gene under the dependence of human cytomegalo virus promoter into HeLa cells was evaluated; Inactive; type: functional, cell-based

## CCCCCCCCCCCCCCCCCCN(CCCCCCCCCCCCCCCCCC)C(=O)c1ccccc1C(=O)OC[C@H]1O[C@H](OC)[C@H](OCCN)[C@@H](OCCN)[C@H]1OCCN
[1]
  Activity: Active
[2]
  Activity: 8 (nM of vector) (ug of DNA)-1
[3]
  Activity: 12 (nM of vector) (ug of DNA)-1

## CCCCCCCCCCCCCCCCCCN(CCCCCCCCCCCCCCCCCC)C(=O)CCC(=O)OC[C@H]1O[C@H](OC)[C@H](OC(=O)CN)[C@@H](OC(=O)CN)[C@H]1OC(=O)CN
[4]
  Activity: inactive

## CCCCCCCCCCCCCCCCCCN(CCCCCCCCCCCCCCCCCC)C(=O)CCC(=O)OC[C@H]1O[C@H](OC)[C@H](OCCN)[C@@H](OCCN)[C@H]1OCCN
[1]
  Activity: Active
[2]
  Activity: 8 (nM of vector) (ug of DNA)-1
[3]
  Activity: 12 (nM of vector) (ug of DNA)-1

## CCCCCCCCCCCCCCCCCCN(CCCCCCCCCCCCCCCCCC)C(=O)c1ccccc1C(=O)OC[C@H]1O[C@H](OC)[C@H](OC(=O)CN)[C@@H](OC(=O)CN)[C@H]1OC(=O)CN
[4]
  Activity: inactive

Source: ChEMBL document CHEMBL1133205, “Synthesis and biological properties of new glycosidic cationic lipids for DNA delivery” (2000)
